Values joined by “and” are separate entries in the source; they are usually repeats but may differ in a detail not shown here. Equal entries are not always repeated.
Legend:
Format in all cases: in vivo
[1] = test system: TNF-α; test: TNF-α production by epididymal fat tissues collected from treated insulin-resistant AKR mice (ELISA); settings: for TNF-α: culture supernatant of epididymal fat tissue after 1 hour culture, 60th day of oral administration, 25 μg/kg once a day; for Effect on production of TNF-α as compared with negative sample group: fat tissues, 60th day, 25 μg/kg oral once a day, Tukey-Kramer's test
Experimental: (§1) The present example was performed by using AKR mice to which insulin resistance was induced by feeding with a high-fat diet, to evaluate the effects of the agent for amelioration insulin resistance of the present invention on production of TNF-α and MCP-1 from respective cells of fat tissues.
(§2) In Example 2, the same test samples and negative sample as those prepared in Example 1 were used.
(§3) After that, the mice were divided into groups of 8 mice each. Each of the groups of mice was orally administered with 1 ml per 40 g of body weight (25 μg/kg of body weight) of a test sample or the negative sample once a day using a sonde. […] After 1 hour of the culture, culture supernatants were collected, and concentrations of TNF-α and MCP-1 in the culture supernatants were measured by ELISA (Biosource).

[2] = test system: MCP-1; test: MCP-1 production by epididymal fat tissues collected from treated insulin-resistant AKR mice (ELISA); settings: for MCP-1: culture supernatant of epididymal fat tissue after 1 hour culture, 60th day of oral administration, 25 μg/kg once a day; for Effect on production of MCP-1 as compared with negative sample group: fat tissues, 60th day, 25 μg/kg oral once a day, Tukey-Kramer's test
Experimental: as §1, §2, §3

[3] = test system: AKR mice to which insulin resistance was induced by feeding with a high-fat diet; test: Level of free fatty acid in serum of AKR mice with high-fat-diet-induced insulin resistance; settings: 60th day of oral administration; for Free fatty acid: mouse serum, under fasting, 25 μg/kg of body weight once a day; for Test sample/negative sample (free fatty acid level in serum): relative to negative sample group, 25 μg/kg once a day
Experimental: Compound 3 (4-methylcholest-7-en-3-ol), Compound 4 (4-methylergost-7-en-3-ol), and Compound 5 (4-methylstigmast-7-en-3-ol) which were produced in Preparation Example 1 were each dissolved in DMSO and adjusted with distilled water to each have a concentration of 1 μg/ml, to thereby prepare Test Samples 1, 2, and 3. In this case, DMSO was adjusted to have a final concentration of 0.2%.
After that, the mice were divided into groups of 8 mice each. Each of the groups of mice were orally administered with 1 ml per 40 g of body weight (25 μg/kg of body weight) of a test sample or the negative sample once a day using a sonde.

[4] = test system: AKR mice to which insulin resistance was induced by feeding with a high-fat diet; test: Insulin tolerance test in AKR mice with high-fat-diet-induced insulin resistance; settings: 45th day of oral administration, 25 μg/kg once a day; 4 hours fasted; 0.75 U/kg human insulin intraperitoneally; up to 60 minutes; compared with negative sample
Experimental: The present example was performed by using AKR mice to which insulin resistance was induced by feeding with a high-fat diet, to confirm an enhancing effect of the agent for improving insulin resistance of the present invention on insulin sensitivity by performing an insulin tolerance test.
In Example 3, the same test samples and negative sample as those prepared in Examples 1 and 2 were used.
After that, the mice were divided into groups of 8 mice each. Each of the groups of mice was orally administered with 1 ml per 40 g of body weight (25 μg/kg of body weight) of a test sample or the negative sample once a day using a sonde. […] The insulin tolerance test in the present example was performed in such a manner that: the mice were fasted for 4 hours, and were then intraperitoneally administered with 0.75 U/kg of body weight of a human insulin (Eli Lily and Company); and changes with time in blood glucose level were measured from the initiation of the administration of insulin to after 60 minutes later.

| Structure (SMILES) | TNF-α [1] [pg/mL] | Effect on production of TNF-α as compared with negative sample group [1] | MCP-1 [2] [pg/mL] | Effect on production of MCP-1 as compared with negative sample group [2] | Free fatty acid [3] [mEp/l] | Test sample/negative sample (free fatty acid level in serum) [3] | Change in blood glucose level after administration of insulin (FIG. 1) [4] |
| --- | --- | --- | --- | --- | --- | --- | --- |
| CC(C)CCCC(C)C1CCC2C3=CCC4C(C)C(O)CCC4(C)C3CCC21C (stereo not drawn) [Test Sample 1, 4-methylcholest-7-en-3-ol] | 33.73 ± 1.68 | significant inhibitory effects | 100.86 ± 8.31 | significant inhibitory effects | 1.35 ± 0.23 | 86.4% and 84.5% | rapid reduction in blood glucose levels |
| CC(C)C(C)CCC(C)C1CCC2C3=CCC4C(C)C(O)CCC4(C)C3CCC21C (stereo not drawn) [Test Sample 2, 4-methylergost-7-en-3-ol] | 32.71 ± 1.70 | significant inhibitory effects | 95.56 ± 10.56 | significant inhibitory effects | 1.21 ± 0.22 | 81.6% | rapid reduction in blood glucose levels |
| CCC(CCC(C)C1CCC2C3=CCC4C(C)C(O)CCC4(C)C3CCC21C)C(C)C (stereo not drawn) [Test Sample 3, 4-methylstigmast-7-en-3-ol] | 29.80 ± 3.82 | significant inhibitory effects | 87.80 ± 9.24 | significant inhibitory effects | 0.90 ± 0.15 | 60.8% | rapid reduction in blood glucose levels |
